Earlier results on one molecule are cited in US12527767B2 (priority 2019, dated 2026).

This data set has as its system corneal neovascularization. Conditions: rabbit, in vivo.

Turning to `O=C1O[C@H]([C@@H](O)CO)C(O)=C1O` [ascorbic acid], the corneal neovascularization entry is “attenuated corneal neovascularization”.
